Laboratory results: article PMC11599599, “Synthesis, characterization, molecular docking, pharmacokinetics, and molecular dynamics of new bis-thiazoles based on bis-thiosemicarbazone as anti-coxsackievirus” (Scientific Reports, 2024)

Tests used:
Type in all cases: cell-based
Vero cells = test: Cytotoxicity assay on Vero cells (microscopic morphology); design: key to Cytotoxicity on Vero cells (cell sheet affected): -: Safe concentration; + 1, +2, + 3, +4: about 25, 50, 75, 100% of cell sheet was affected respectively; + 1, +2, + 3, +4: about 25, 50, 75, 100% of cell sheet was affected respectively; + 1, +2, + 3, +4: about 25, 50, 75, 100% of cell sheet was affected respectively; + 1, +2, + 3, +4: about 25, 50, 75, 100% of cell sheet was affected respectively; M: masked (color of compounds made cells unseen); conditions: for Cytotoxicity on Vero cells (cell sheet affected): 24 h, morphological changes
Experimental: (§1) Compounds: 10 mg were dissolved in 1 mL (10% DMSO and 90% deionized water), sterilized by 1% antibiotic–antimycotic mixture and stored in −20.
(§2) Cells: Vero cell line was used. The cells were propagated in DMEM medium (Lonza, USA) supplemented with 10% fetal bovine serum (Gibco, USA), 1% antibiotic–antimycotic mixture (Lonza, USA).
Cytotoxic effect of compounds was measured by inoculation different doses of compounds on tested cells then examining them microscopically after 24 h to determine any morphological changes that appeared on cells as a result of being subjected to the compounds[46]. Vero cells were seeded onto 96-well plates, which were then incubated for the whole night. After a 24-hour incubation period at 37 °C in a humidified incubator with 5% CO2, compounds were injected at concentrations of 10, 20, 30, 40, 50, 60, 70, 80, 90, and 100 µg /100 µl. Any morphological changes were monitored under a microscope.

Cox B virus [1] = test: Plaque reduction assay against Cox B virus
Experimental: as §1, §2
Virus: Cox B virus was propagated and titrated to give final count of 0.9 × 10^5 viral particle/mL.
This test was done according to Tebas et al.[47], In a 12-well plate Vero cells (10^5 cells/mL) were cultivated for 1 day at 37 °C. The Cox B virus was mixed with the safe concentration of the compound and incubated for 1 h at 37 °C before being added to the cells. Following the removal of the growth media, the cells were injected with virus-extract combinations ([…]) and then rinsed with PBS (Phosphate Buffer Saline). Following a one-hour contact period for virus adsorption, the cell monolayer was supplemented with one milliliter of Dulbecco’s Modified Eagles Media (DMEM) containing 2% agarose. The plates were then allowed to solidify and incubated at 37 °C until the development of viral plaques. Formalin (10%) was added for 2 h then plates were stained with crystal violet. Control wells were included where untreated virus was incubated with Vero cells and finally plaques were counted and percentage reduction in plaques formation in comparison to control wells was recorded as following:
% inhibition = (viral count(untreated) - viral count(treated))/viral count(untreated)X100.

Cox B virus [2] = test: Mechanism of virus inhibition: virucidal; conditions: for Viral count (treated): Virucidal, control 1.6 × 10^7
Experimental: For a compound having an antiviral effect, this might be due to the effect on viral replication, the effect on viral adsorption, or the direct effect on the viral particle. Virucidal[50] the assay was conducted in a 6-well plate with Vero cells that were cultured for two days at 37 °C (10^5 cells/mL). A volume of […] serum-free DMEM containing 1.5 × 10^2 PFU from Cox B was added to the concentration of the compound resulting in viral inhibition, after 1 h incubation, The mixture was diluted three times using serum-free media, which leaves almost no extract but still permits the existence of virus particles to develop on Vero cells. 100 mL of each dilution was then introduced to the Vero cell monolayer. The DMEM overlayer was added to the cell monolayer after a one-hour contact period. The plates were left to solidify then incubated till the appearance of plaques.

Cox B virus [3] = test: Mechanism of virus inhibition: viral adsorption; conditions: for Viral count (treated): Adsorption, control 1.6 × 10^7
Experimental: (§3) For a compound having an antiviral effect, this might be due to the effect on viral replication, the effect on viral adsorption, or the direct effect on the viral particle.
Viral adsorption[49] Vero cells were cultivated in a 6-well plate (10^5 cells/mL) for 1 day at 37 °C. The compound was applied at different concentrations in […] medium without supplements and coincubated with the cells for 2 h at 4 °C. The virus was coincubated with the pretreatment cells for one hour after the unadsorbed extract was eliminated by washing the cells three times in PBS. Next, 2 mL of DMEM supplemented with 2% agarose were added. The plates were left to solidify and incubated till the appearance of plaques.

Cox B virus [4] = test: Mechanism of virus inhibition: viral replication; conditions: for Viral count (treated): Replication, control 1.6 × 10^7
Experimental: as §3
Viral replication[48] Assay was carried out in a 6-well plate where Vero cells were cultivated (10^5 cells/ml) for 1 day at 37 °C. The cells were directly inoculated with the virus. After an hour of incubation, unadsorbed viral particles were eliminated by repeatedly washing the cells with PBS.
The compound was applied at different concentrations, and after 1 h contact time, 2 mL of DMEM medium supplemented with 2% agarose were added to the cell monolayer. Plates were left to solidify then incubated till the appearance of plaques.

In the case of `COc1ccc(OC)c(C=C2/C(=N/Nc3nc(C)c(/N=N/c4ccccc4)s3)c3ccccc3/C2=N\Nc2nc(C)c(/N=N/c3ccccc3)s2)c1` [7a, 2,2’-(((1E,3E)−2-(2,5-dimethoxybenzylidene)−1H-indene-1,3(2H)-diylidene)bis(hydrazin-1-yl-2-ylidene))bis(4-methyl-5-((E)-phenyldiazenyl)thiazole)], the “Cytotoxicity on Vero cells (cell sheet affected)” value (shortened to “Cytotoxicity on Vero cells”) (Vero cells; 10 µg/100µl) is reported as “-”, the “Cytotoxicity on Vero cells” value (Vero cells; 20 µg/100µl) is reported as “-” and the “Cytotoxicity on Vero cells” value (Vero cells; 30 µg/100µl) is reported as “-”. The “Cytotoxicity on Vero cells” value (Vero cells; 40 µg/100µl) was “-”, the “Cytotoxicity on Vero cells” value (Vero cells; 50 µg/100µl) was “-” and the “Cytotoxicity on Vero cells” value (Vero cells; 70 µg/100µl) was “M”. For the same molecule, the “Cytotoxicity on Vero cells” value (Vero cells; 80 µg/100µl) was “M”, the “Cytotoxicity on Vero cells” value (Vero cells; 90 µg/100µl) was “M” and the “Cytotoxicity on Vero cells” value (Vero cells; 100 µg/100µl) was “M”. For the same molecule, the “Safety effect on Vero cells (in words)” value (Vero cells; Table 1, 24 h) was “dense and coloured that made masking to the cell sheet”, the “Viral count (treated)” value (Cox B virus [1]; 20 ug/mL) was 0.54 × 10 ^7 and the “Viral count (treated)” value (Cox B virus [1]; 40 ug/mL) was 0 × 10 ^7. The inhibition at 20 µg/mL (Cox B virus [1]; Vero) was 66%, the inhibition at 40 µg/mL (Cox B virus [1]; Vero) was 100% and the “Antiviral activity against Cox B virus (in words)” value (Cox B virus [1]; at tested concentrations) was “high viral inhibition”. For the same molecule, the inhibition at 20 µg/mL (Cox B virus [2]) was 0%, the inhibition at 40 µg/mL (Cox B virus [2]) was 12% and the inhibition at 60 µg/mL (Cox B virus [2]) was 37%. The “Viral count (treated)” value (Cox B virus [2]; 20 µg/ml) was 1.6 × 10^7, the “Viral count (treated)” value (Cox B virus [2]; 40 µg/ml) was 1.4 × 10^7 and the “Viral count (treated)” value (Cox B virus [2]; 60 µg/ml) was 1 × 10^7. For the same molecule, the “Effect on viral adsorption (in words)” value (Cox B virus [3]) was “inhibiting both viral adsorption and replication”, the inhibition at 20 µg/mL (Cox B virus [3]) was 42% and the inhibition at 40 µg/mL (Cox B virus [3]) was 57%. The inhibition at 60 µg/mL (Cox B virus [3]) was 85%, the “Viral count (treated)” value (Cox B virus [3]; 20 µg/ml) was 0.92 × 10^7 and the “Viral count (treated)” value (Cox B virus [3]; 40 µg/ml) was 0.68 × 10^7. For the same molecule, the “Viral count (treated)” value (Cox B virus [3]; 60 µg/ml) was 0.24 × 10^7, the “Effect on viral replication (in words)” value (Cox B virus [4]) was “inhibiting both viral adsorption and replication” and the inhibition at 20 µg/mL (Cox B virus [4]) was 37%. The inhibition at 40 µg/mL (Cox B virus [4]) was 48%, the inhibition at 60 µg/mL (Cox B virus [4]) was 56% and the “Viral count (treated)” value (Cox B virus [4]; 20 µg/ml) was 1 × 10^7. The “Viral count (treated)” value (Cox B virus [4]; 40 µg/ml) was 0.8 × 10^7 and the “Viral count (treated)” value (Cox B virus [4]; 60 µg/ml) was 0.7 × 10^7.
